# Measured values from the METLIN SMRT retention time set (Domingo-Almenara et al. 2019).
# Assay: gradient 5% acetonitrile 3 min, to 50% in 2 min, to 85% in 15 min, held 3 min, 100 µL/min
# Conditions: column: Zorbax Extend-C18 2.1 x 50 mm; eluents: water / acetonitrile, 0.1% formic acid
# Summary of the method: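 Retention times come from adduct peaks that were picked computationally and then checked by hand. The standards, pure and pooled in mixtures of ~100 molecules, were run on a Zorbax Extend-C18 column (2.1 × 50 mm, 1.8 μm) at 100 μL/min with water and acetonitrile, each with 0.1% formic acid. Detection was by quadrupole time-of-flight mass spectrometry in positive and negative ionization mode, with a dead volume of 40 μL and a dwell volume of 900 μL.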
row,RP-LC retention time [s],SMILES
1,784,Cc1ccc(C)c(N2CCN(Cc3nc(-c4ccc(N5CCCC5)nc4)no3)CC2)c1
2,637,CCOc1cc(=O)c(C(N)=O)nn1-c1ccc(F)c(F)c1
3,1140,Cc1sc(-c2cc(C(F)(F)F)on2)cc1S(=O)(=O)NCCc1cccs1
4,1130,CCCC(C)NC(=O)c1ccc(Cl)c(Cl)c1 (centres undefined)
5,1170,CCCCn1c(=O)c2ccccc2n(Cc2nc(-c3ccc(F)cc3)no2)c1=O
6,617,Cc1cc(N2CCN(C(=O)Nc3ccccc3F)CC2)nc(N2CCOCC2)n1
7,825,CC1(C)COc2ccc(NC(=O)COc3ccccc3F)cc2NC1=O
8,573,O=C(NCc1ccccn1)c1ccc(=O)n(Cc2ccccc2)n1
9,670,CCN1C(=O)c2ccccc2Oc2ccc(C(=O)NCc3ccc(N(C)C)cc3)cc21
10,731,COCCN1C(=O)CCc2cc(NC(=O)Cc3ccccc3OC)ccc21
11,576,CN(C)[C@@H]1CN(C(=O)c2ccsc2)CC[C@]1(O)c1ccccc1
12,630,Cc1ccc(C)c(CN2CCC(N3CCN(Cc4nc(C)no4)C3=O)C2)c1 (centres undefined)
13,1060,CCc1cc(-c2csc(S(=O)(=O)NCCCc3ccccc3)c2)on1
14,658,CCc1nncn1C1CCN(S(=O)(=O)c2cc(F)ccc2C)CC1
15,611,O=C(c1ccc(-n2cccn2)nn1)N1CCN(C(=O)c2ccco2)CC1
16,659,CCCN(Cc1ccc(F)cc1)Cc1cc(=O)n2cc(Cl)ccc2n1
17,737,Cc1noc(-c2ccnc(-n3cnc(C(=O)N(C)C4CCCCC4)c3)c2)n1
18,795,CN(C)C(=O)Cc1ccc(NC(=O)Cc2ccc(-c3ccccc3)cc2)cc1
19,690,CCn1cc(CN2CCC(C(=O)NCc3ccc(C)o3)CC2)c2ccccc21
20,866,O=c1n(Cc2ccccc2Cl)nc2ccc(S(=O)(=O)N3CCCC3)cn12
21,879,COc1ccc(OCc2ccc(C(=O)Nc3ccc4c(c3)OCO4)o2)cc1
22,1170,CCN1C(=O)C2(CCN(S(=O)(=O)c3ccc4c(c3)CCC4)CC2)c2ccccc21

row,RP-LC retention time [s],SMILES
1,600,CCOC(=O)c1cc(S(=O)(=O)N2CCCC2C(=O)N2CCN(c3ccccn3)CC2)cn1C (centres undefined)
2,993,COc1cccc(CNC(=O)C2(C)CCCN(C(=O)Nc3cccc(Br)c3)C2)c1 (centres undefined)
3,836,Cc1cc2nn(CC(=O)Nc3ccc(F)c(Cl)c3)c(=O)n2c(N2CCCC2)n1
4,847,COc1ccc(S(=O)(=O)N2CCC(c3noc(C4CC4)n3)C2)cc1 (centres undefined)
5,630,COc1ccc(-c2noc(-c3ccc(N4CCN(C)CC4)nn3)n2)cc1
6,1070,CCOC(=O)c1cc(C)nc2c1c(=O)n(Cc1ccccc1F)c(=O)n2C
7,930,CCn1c(=O)c2cc(C(=O)NCc3cc(C)ccc3C)nn2c2ccccc21
8,556,COc1ncccc1CNC(=O)CCc1c(C)noc1C
9,601,CN(C)C[C@@H]1CN(c2ncccn2)C[C@H]1NS(=O)(=O)c1cccc(C#N)c1
10,798,N#Cc1cc2c(nc1SCC(=O)N1CCOCC1)CCCC2
11,562,CN(C)C(CNC(=O)Nc1cccs1)c1ccccc1Cl (centres undefined)
12,845,CCOc1ccc(NC(=O)Cn2c(=O)nc(N3CCCC(C)C3)c3ccccc32)cc1 (centres undefined)
13,636,CCOC(=O)c1ccc(N2C(=O)CC(NCCCN3CCN(CC)CC3)C2=O)cc1 (centres undefined)
14,1080,O=C(Nc1cc(-c2cccc(Cl)c2)no1)C1CCCN(c2ncnc3c2nc2n3CCCCC2)C1 (centres undefined)
15,836,O=C(NC1CC1)c1cc(-c2ccccc2)ns1
16,635,O=C(Nc1cccnc1)c1ccc(CNS(=O)(=O)c2cccc(C(F)(F)F)c2)cc1
17,978,O=C(OCc1cc(-c2ccc3c(c2)OCCO3)on1)c1ccc(Br)o1
18,906,CCC(C)N(CC(=O)N1CCc2sccc2C1COc1ccc(F)cc1)C(=O)COC (centres undefined)
19,741,O=C(NC1CC1)c1ccc(OCC2CCCN2C(=O)C2CCC2)cc1 (centres undefined)
20,658,Clc1ccccc1-c1nnc(-c2ccc(-n3ccnc3)nc2)o1
21,932,CC(C)Cn1cc(S(=O)(=O)NCc2ccccc2F)c2cccnc21
22,1020,CCc1ccc(N2CCC(C(=O)NCCc3c[nH]c4ccc(Cl)cc34)C2=O)cc1 (centres undefined)

row,RP-LC retention time [s],SMILES
1,904,Cc1cccc(OCC(=O)N2CCN(S(=O)(=O)c3c(C)nn(C(C)C)c3C)CC2)c1
2,798,Cc1cccc(NC(=O)C2CCN(C(=O)c3ncn4c3COC(c3ccccc3)C4)CC2)c1 (centres undefined)
3,538,Cn1c(=O)n(C)c2cc(CNCCc3ccc(S(N)(=O)=O)cc3)ccc21
4,598,O=C(NCCN1CCCC1)c1c2c(nc3ccccc13)C(=O)N(C1CCCCC1)C2
5,674,CCNc1nc(NC)nc(-n2cnc(SC)n2)n1
6,773,CC1CN(C2CCCCC2)c2nc3c(c(=O)n(CC(=O)O)c(=O)n3C)n2C1 (centres undefined)
7,654,CC(=O)c1cccc(NC(=O)c2cc(C)nc3ccccc23)c1
8,735,CCc1ccccc1N1C(=O)c2c(C(=O)OC)ncn2CC1(C)C(=O)NCc1ccccc1 (centres undefined)
9,731,CC(C)C(NC(=O)Cc1ccccc1Cl)C(=O)Nc1nc2ccccc2[nH]1 (centres undefined)
10,691,COCCC1(NC(=O)c2ccsc2)CCN(S(C)(=O)=O)CC1
11,690,Cn1cnc2c(C(=O)N3CCOCC3)nn(-c3ccc(Cl)cc3)c2c1=O
12,868,CCn1ccc(C(=O)Nc2ccc(OCc3nnc(-c4ccccc4)o3)cc2)n1
13,562,CC(=O)Nc1ccc(SCCCC(=O)Nc2cccc(C)n2)nn1
14,594,O=C(NCc1ccc2c(c1)OCO2)C1Cn2cccc2C(=O)N1Cc1cccnc1 (centres undefined)
15,959,CCc1ccc(CNC(=O)C2CCCN(C(=O)c3[nH]c(C)c(C(=O)OC(C)C)c3C)C2)cc1 (centres undefined)
16,922,CCOC(=O)c1c(NCc2ccc(C)cc2)c2ccc(Cl)cc2[nH]c1=O
17,1140,CCn1ccc(C(=O)Nc2cc(Cl)ccc2Cl)n1
18,679,Cc1ccc2nc(CN3CCN(C(=O)Nc4ccccc4C)CC3)oc2c1
19,958,COc1cc(NC(=O)c2cc3c(n(-c4ccc(F)cc4)c2=O)CCCC3=O)cc(OC)c1
20,626,CN(C)C(=O)c1csc(S(=O)(=O)N2CCC(C(=O)NC3CC3)CC2)c1
21,877,COc1ccc(CCNC(=O)c2c(N3CCCC3=O)c3cc(OC)ccc3n2C)c(OC)c1
22,908,CCOC(=O)C1=C(C)NC2=C(C(=O)C(C(=O)OC)C(C)C2)C1c1cccc(F)c1 (centres undefined)

row,RP-LC retention time [s],SMILES
1,1030,COc1cc2c(cc1OC)[N+]([O-])=C(c1ccccc1)C2=O
2,866,Cc1cccc(-n2c(=O)c3c(cc(C)n3C)n(CC(=O)Nc3ccc(C)c(F)c3)c2=O)c1
3,554,COc1ccc(C2C(C(C)=O)=C(O)C(=O)N2CCCN2CCOCC2)c(OC)c1 (centres undefined)
4,1030,CCCc1ccc(S(=O)(=O)NCc2c(-c3ccccc3)nc3sc(C)nn23)cc1
5,669,Cc1cccc(N(C)C(=O)Cn2nc3n(c2=O)CCCC3)c1
6,842,Cc1ccc2c(c1)NC(=O)c1cc(NC(=O)Cc3ccc(F)cc3)ccc1O2
7,943,CCOc1ccc2c(n1)CCN(C(=O)Nc1ccc(CC)cc1)C2
8,683,COC(=O)c1c(C)[nH]c(C(=O)N2CCC(CC(=O)NCCc3ccco3)CC2)c1C
9,1210,CCCn1cc(C(=O)Nc2ccc(OC)c(Cl)c2)c(=O)c2ccc(C)nc21
10,656,Cc1nnc2c(=O)n(CC(=O)NCc3cccc(F)c3)c3cccnc3n12
11,570,CN(C)C(=O)c1cc2c(s1)CCC(C(=O)N1CCN(c3ccccn3)CC1)C2 (centres undefined)
12,899,O=C(NC1CCCCCC1)C1CCN(Cc2cc3ccccc3n2Cc2ccccc2Cl)CC1
13,682,CNCc1cc(-c2ccccc2F)n(S(=O)(=O)c2cccnc2)c1
14,693,COc1cccc(NS(=O)(=O)c2cc(-c3[nH]ncc3C(=O)N3CCCC3)oc2C)c1
15,708,CCc1ccc(NC(=O)Cn2cnc3nc(N4CCC(C(=O)NC5CC5)CC4)sc3c2=O)cc1
16,867,O=C(COc1ccccc1F)Nc1nnc(-c2cc(Cl)sc2Cl)o1
17,772,Cc1ccc(C(=O)CC2(O)C(=O)Nc3ccc(Cl)cc32)cc1C (centres undefined)
18,1030,CCC1CCCCN1c1nc(-c2ccc([N+](=O)[O-])cc2)nc2ccccc12 (centres undefined)
19,1150,CCN(CC)C(=O)Cn1nc(-c2nc(-c3ccc(C)cc3)no2)c2ccccc21
20,804,CC(C)c1ccc(C(C)NC(=O)C2CCN(Cc3cn(C)c4ccccc34)CC2)cc1 (centres undefined)

row,SMILES,RP-LC retention time [s]
1,COc1ccc2c(c1)C1(CCN(C(=O)CC(C)C)C1)C(=O)N2C (centres undefined),722
2,COc1ccc(Cn2cc(C(=O)O)nn2)cc1F,641
3,Cc1cc(OC(C)C(=O)N[C@@H](C)C(=O)O)c2c3c(c(=O)oc2c1)CCCC3 (some centres undefined),767
